The source of these data is patent publication US20190292179A1 (BRISTOL-MYERS SQUIBB COMPANY, priority 2016, published 2019).

Molecules are shown by their SMILES.

What is called IC50 is the concentration at which inhibition is half-maximal. Low values mean greater potency, high ones weaker potency.

In this assay the target is T1, HIS-TGFβR1 T204D (Homo sapiens, UniProt P36897, T204D).
T1 sequence (P36897 34-503 T204D): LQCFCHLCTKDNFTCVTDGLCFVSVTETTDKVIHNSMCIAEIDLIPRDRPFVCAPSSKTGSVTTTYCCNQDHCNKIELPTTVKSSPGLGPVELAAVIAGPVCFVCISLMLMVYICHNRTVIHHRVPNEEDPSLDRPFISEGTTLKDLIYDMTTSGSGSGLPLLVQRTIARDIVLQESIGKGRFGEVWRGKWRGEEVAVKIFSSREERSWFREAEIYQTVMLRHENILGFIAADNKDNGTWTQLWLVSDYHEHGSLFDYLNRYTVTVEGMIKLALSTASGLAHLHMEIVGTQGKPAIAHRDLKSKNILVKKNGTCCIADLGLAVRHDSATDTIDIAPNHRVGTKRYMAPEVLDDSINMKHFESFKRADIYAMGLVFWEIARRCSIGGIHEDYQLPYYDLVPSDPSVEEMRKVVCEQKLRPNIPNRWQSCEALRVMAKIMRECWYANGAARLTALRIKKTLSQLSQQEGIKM
Put plainly: HTRF probe-displacement assay with HIS-TGFβR1 T204D. The format is binding. The settings on record: 1 nM HIS-TGFβR1 T204D, labeled probe at Kd, 1 hour at room temperature. Here is the method:
The reaction is incubated for 1 hour at room temperature and the HTRF signal was measured on an Envision plate reader (Ex: 340 nm; Em: 520 nm/495 nm). Inhibition data were calculated by comparison to no enzyme control reactions for 100% inhibition and vehicle-only reactions for 0% inhibition. The final concentration of reagents in the assay are 1 nM HIS-TGFβR1 T204D or HIS-TGFβR2 WT, 0.2 nM anti-HIS detection antibody, labeled small molecule probe (at Kd) and 0.5% DMSO. Dose response curves were generated to determine the concentration required inhibiting 50% of kinase activity (IC50). Compounds were dissolved at 10 mM in dimethylsulfoxide (DMSO) and evaluated at eleven concentrations. IC50 values were derived by non-linear regression analysis.

The compound `Cc1cccc(-c2nn(C)cc2-c2ccc3ncc(NC(C)(C)C)n3c2)n1` [Example 53, N-(tert-butyl)-6-(1-methyl-3-(6-methylpyridin-2-yl)-1H-pyrazol-4-yl)imidazo[1,2-a]pyridin-3-amine] displayed an IC50 of 0.03 µM. With `CCOC(=O)c1[nH]nc(-c2ccc(F)cc2)c1-c1ccc2ncc(C#N)n2c1` [Example 128, ethyl 4-(3-cyanoimidazo[1,2-a]pyridin-6-yl)-3-(4-fluorophenyl)-1H-pyrazole-5-carboxylate] the figure was 0.281 µM; with `C=C(C)c1[nH]nc(-c2ccc(F)cc2)c1-c1ccc2nccn2c1` [Example 136, 6-(3-(4-fluorophenyl)-5-(prop-1-en-2-yl)-1H-pyrazol-4-yl)imidazo[1,2-a]pyridine], 0.023 µM; with `Cn1nc(C(F)(F)F)c(-c2ccc3ncc(C(N)=O)n3c2)c1-c1ccc(F)cc1` [Example 109, 6-(5-(4-fluorophenyl)-1-methyl-3-(trifluoromethyl)-1H-pyrazol-4-yl)imidazo[1,2-a]pyridine-3-carboxamide], 1.13 µM.

Compound `O=C(O)c1[nH]nc(-c2ccc(F)cc2)c1-c1ccc2nccn2c1` [Example 133, 3-(4-fluorophenyl)-4-(imidazo[1,2-a]pyridin-6-yl)-1H-pyrazole-5-carboxylic acid] displayed an IC50 of 25.3 µM. Compared with the last compound, the IC50 is about 22-fold higher. In turn, `N#Cc1cnc2ccc(-c3c(-c4ccc(Cl)cc4)n[nH]c3C3CC3)cn12` [Example 96, 6-(3-(4-chlorophenyl)-5-cyclopropyl-1H-pyrazol-4-yl)imidazo[1,2-a]pyridine-3-carbonitrile] registered an IC50 of 0.07 µM. Against the preceding compound, the IC50 is about 360-fold lower. The value for `O=C(O)c1cnc2ccc(-c3c[nH]nc3-c3ccc(F)cc3)cn12` [Example 60, 6-(3-(4-fluorophenyl)-1H-pyrazol-4-yl)imidazo[1,2-a]pyridine-3-carboxylic acid] was 0.012 µM; that for `CC(=O)Nc1[nH]nc(-c2ccc(F)cc2)c1-c1ccc2ncc(C#N)n2c1` [Example 142, N-(4-(3-cyanoimidazo[1,2-a]pyridin-6-yl)-3-(4-fluorophenyl)-1H-pyrazol-5-yl)acetamide] was 0.274 µM; that for `Cn1nc(-c2ccc(F)cc2)c(-c2ccc3ncc(C(N)=O)n3c2)c1C(F)(F)F` [Example 108, 6-(3-(4-fluorophenyl)-1-methyl-5-(trifluoromethyl)-1H-pyrazol-4-yl)imidazo[1,2-a]pyridine-3-carboxamide] was 0.022 µM. `CC(=O)Nc1cnc2ccc(-c3c[nH]nc3-c3ccc(F)cc3)nn12` [Example 58, N-(6-(3-(4-fluorophenyl)-1H-pyrazol-4-yl)imidazo[1,2-b]pyridazin-3-yl)acetamide] displayed an IC50 of 0.025 µM. On to `CC(C)c1[nH]nc(-c2ccc(Cl)cc2)c1-c1ccc2ncc(C#N)n2c1` [Example 75, 6-(3-(4-chlorophenyl)-5-isopropyl-1H-pyrazol-4-yl)imidazo[1,2-a]pyridine-3-carbonitrile], for which the IC50 was 0.054 µM. Regarding `Cc1cc(-c2n[nH]c(C(C)C)c2-c2ccc3nccn3c2)ccc1F` [Example 80, 6-(3-(4-fluoro-3-methylphenyl)-5-isopropyl-1H-pyrazol-4-yl)imidazo[1,2-a]pyridine], the IC50 came to 0.001 µM.

Compound `OCc1cnc2ccc(-c3c(-c4ccc(F)cc4)n[nH]c3C3CC3)cn12` [Example 90, (6-(5-cyclopropyl-3-(4-fluorophenyl)-1H-pyrazol-4-yl)imidazo[1,2-a]pyridin-3-yl)methanol] returned an IC50 of 0.004 µM.

In turn, `CC(C)(O)c1cnc2ccc(-c3c(-c4ccc(F)cc4)nn4c3COCC4)cn12` [Example 113, 2-(6-(2-(4-fluorophenyl)-6,7-dihydro-4H-pyrazolo[5,1-c][1,4]oxazin-3-yl)imidazo[1,2-a]pyridin-3-yl)propan-2-ol] showed a half-inhibitory concentration (IC50) of 3.81 µM. This IC50 lies about 950-fold higher than the previous one. With `N#Cc1cnc2ccc(-c3c(-c4ccc(F)cc4)n[nH]c3C(N)=O)cn12` [Example 130, 4-(3-cyanoimidazo[1,2-a]pyridin-6-yl)-3-(4-fluorophenyl)-1H-pyrazole-5-carboxamide] the figure was 0.145 µM; with `CCc1[nH]nc(-c2ccc(F)cc2)c1-c1ccc2nccn2c1` [Example 83, 6-(5-ethyl-3-(4-fluorophenyl)-1H-pyrazol-4-yl)imidazo[1,2-a]pyridine], 0.017 µM. The value for `Fc1ccc(-c2n[nH]c(C3CC3)c2-c2ccc3ncc(F)n3c2)cc1` [Example 102, 6-(5-cyclopropyl-3-(4-fluorophenyl)-1H-pyrazol-4-yl)-3-fluoroimidazo[1,2-a]pyridine] was 0.014 µM; that for `CCOC(=O)c1[nH]nc(-c2cccc(C)n2)c1-c1ccc2ncc(C#N)n2c1` [Example 138, ethyl 4-(3-cyanoimidazo[1,2-a]pyridin-6-yl)-3-(6-methylpyridin-2-yl)-1H-pyrazole-5-carboxylate] was 0.002 µM. `Cc1cccc(-c2c(-c3ccc4nccn4c3)c(C(C)C)nn2C)n1` [Example 120, 6-(3-isopropyl-1-methyl-5-(6-methylpyridin-2-yl)-1H-pyrazol-4-yl)imidazo[1,2-a]pyridine] registered an IC50 of 0.115 µM. Consider `Clc1ccc(-c2n[nH]c(C3CC3)c2-c2ccc3nccn3c2)cc1` [Example 98, 6-(3-(4-chlorophenyl)-5-cyclopropyl-1H-pyrazol-4-yl)imidazo[1,2-a]pyridine], for which the IC50 stood at 0.05 µM. As to `Cc1cccc(-c2c(-c3ccc4ncc(C#N)n4c3)c(C(C)C)nn2C)n1` [Example 117, 6-(3-isopropyl-1-methyl-5-(6-methylpyridin-2-yl)-1H-pyrazol-4-yl)imidazo[1,2-a]pyridine-3-carbonitrile], the IC50 came out at 0.009 µM. With `CC(C)c1[nH]nc(-c2ccc(F)cc2)c1-c1ccc2nccn2c1` [Example 69, 6-(3-(4-fluorophenyl)-5-isopropyl-1H-pyrazol-4-yl)imidazo [1,2-a]pyridine] the figure was 0.007 µM.

`O=C(Nc1cnc2ccc(-c3c[nH]nc3-c3ccc(F)cc3)cn12)C(F)(F)F` [Example 16, 2,2,2-trifluoro-N-(6-(3-(4-fluorophenyl)-1H-pyrazol-4-yl)imidazo[1,2-a]pyridin-3-yl)acetamide] had an IC50 of 0.187 µM.

Compound `Fc1ccc(-c2n[nH]c(C(F)(F)F)c2-c2ccc3nccn3c2)cc1` [Example 107, 6-(3-(4-fluorophenyl)-5-(trifluoromethyl)-1H-pyrazol-4-yl)imidazo[1,2-a]pyridine] had an IC50 of 0.147 µM. The IC50 values of the last two compounds are within 1.5-fold of each other. With `CC(C)c1c(-c2ccc3ncc(C(C)(C)O)n3c2)c(-c2ccc(F)cc2)nn1C` [Example 74, 2-(6-(3-(4-fluorophenyl)-5-isopropyl-1-methyl-1H-pyrazol-4-yl)imidazo[1,2-a]pyridin-3-yl)propan-2-ol], the IC50 worked out at 0.374 µM. The value for `CCOC(=O)c1[nH]nc(-c2cccc(C)n2)c1-c1ccc2nccn2c1` [Example 139, ethyl 4-(imidazo[1,2-a]pyridin-6-yl)-3-(6-methylpyridin-2-yl)-1H-pyrazole-5-carboxylate] was 0.002 µM; that for `Cn1nc(C2CC2)c(-c2ccc3ncc(F)n3c2)c1-c1ccc(F)cc1` [Example 104, 6-(3-cyclopropyl-5-(4-fluorophenyl)-1-methyl-1H-pyrazol-4-yl)-3-fluoroimidazo[1,2-a]pyridine] was 2.24 µM. For the compound `CCc1[nH]nc(-c2ccc(F)cc2)c1-c1ccc2ncc(C#N)n2c1` [Example 81, 6-(5-ethyl-3-(4-fluorophenyl)-1H-pyrazol-4-yl)imidazo[1,2-a]pyridine-3-carbonitrile], the IC50 came out at 0.006 µM. Regarding `CC(C)c1nn(C)c(-c2ccc(F)cc2)c1-c1ccc2ncc(C(N)=O)n2c1` [Example 71], the IC50 came to 0.145 µM.

The compound `N#Cc1cnc2ccc(-c3c(-c4ccc(F)cc4)n[nH]c3C(F)(F)F)cn12` [Example 105, 6-(3-(4-fluorophenyl)-5-(trifluoromethyl)-1H-pyrazol-4-yl)imidazo[1,2-a]pyridine-3-carbonitrile] had an IC50 of 0.041 µM. The value for `Cn1nc(C2CC2)c(-c2ccc3ncc(C(N)=O)n3c2)c1-c1ccc(F)cc1` [Example 95, 6-(3-cyclopropyl-5-(4-fluorophenyl)-1-methyl-1H-pyrazol-4-yl)imidazo[1,2-a]pyridine-3-carboxamide] was 0.058 µM; that for `Cc1cc(-c2n[nH]c(C3CC3)c2-c2ccc3nccn3c2)ccc1F` [Example 101, 6-(5-cyclopropyl-3-(4-fluoro-3-methylphenyl)-1H-pyrazol-4-yl)imidazo[1,2-a]pyridine] was 0.001 µM.

In the case of `FC(F)(F)c1cccc(-c2n[nH]cc2-c2ccc3nccn3c2)n1` [Example 3, 6-(3-(6-(trifluoromethyl)pyridin-2-yl)-1H-pyrazol-4-yl)imidazo[1,2-a]pyridine], the IC50 amounted to 0.001 µM. For `Cc1cccc(-c2nn(C)cc2-c2ccc3ncc(NC(=O)C(F)(F)F)n3c2)n1` [Example 54], the IC50 worked out at 0.079 µM. This IC50 lies about 79-fold higher than the previous one. As to `CC(C)c1nn(C)c(-c2ccc(F)cc2)c1-c1ccc2ncc(C(C)(C)O)n2c1` [Example 73, 2-(6-(5-(4-fluorophenyl)-3-isopropyl-1-methyl-1H-pyrazol-4-yl)imidazo[1,2-a]pyridin-3-yl)propan-2-ol], the IC50 stood at 9.86 µM.
